# Patent US20110136883A1, “GRANULATION OF ACTIVE PHARMACEUTICAL INGREDIENTS” (LEK PHARMACEUTICALS D.D., priority 2008, published 2011)
# Experiments:
# Format in all cases: physicochemical
# [1] = Physical properties of bulk powder / final granulate (moisture, densities, compressibility, flowability, angle of repose)
# Experimental: Therefore, an oral pharmaceutical dosage needs a high dose of eprosartan mesylate to be incorporated into the pharmaceutical formulation in order to achieve the desired biological effect (here: significant reduction of blood pressure). The recommended daily starting and usual maintenance dose of eprosartan mesylate when used as monotherapy is 735.8 mg, equivalent to 600 mg eprosartan, available as the commercial Teveten 600 mg tablets. Therefore, the amount of excipients, required to achieve satisfactory technological properties (i.e. flowability, compressibility) should be the least possible to keep the weight of the tablet as low as possible (i.e. less than 1000 mg). Solubility, flowability or compressibility can be determined by using known methods in the art, for example the methods explained in the European Pharmacopoeia, 6th Edition. Larger tablets are in the light of patient compliance less preferred. WO 2006/052461 A1 proposes to enhance bioavailability of eprosartan by addition of substantial amounts of a solubilizer and an emulsifier.
# Physical properties of briquetting powder as well as final mixture are important for a successful technological procedure using NAMADG.
# Further, the impact of various nonaqueos liquid excipients on the formulation of Eprosartan tablets obtained from Examples 3 to 7 (cf. Tables 2 and 3), referring to a matrix of 1000 mg (mass after NAMADG+briquetting+sieving+blending), are summarized in Table 4.
# [2] = Hygroscopicity; conditions: at over 60% RH
# Experimental: Hygroscopicity of an API or excipient can be measured by methods known to a skilled person. Mainly, such methods comprise determining the mass of small amounts of sample (i.e. 5-10 mg) as a function of time, while varying the controlled relative humidity and/or temperature in the environment. Data on hygroscopicity of mainly used excipients can be obtained from Handbook of Pharmaceutical Excipients, 4th edition, Rowe R C, Sheskey P J, Weller P J, eds.; Pharmaceutical Press and American Pharmaceutical Association, London-Washington, UK-USA, 2003.
# [3] = X-ray diffraction check of eprosartan mesylate form (physical stability during processing); conditions: ambient temperature and humidity used throughout the NAMADG-based method
# Experimental: In order to test the ability of the NAMADG process principle according to the present invention for preparing tablets without occurrence different polymorphic forms of the API in the product, a placebo powder without API and anhydrous eprosartan mesylate processed according to Examples 2 to 7 were investigated. All examples were checked for eprosartan form. For comparison tests were conducted after conventional wet granulation conditions.
# As a result, physical stability of the eprosartan mesylate was proven during processes when using the most critical API form, i.e. the anhydrate. […] The final tablet form and placebo powder were analyzed by X-ray diffraction (XRD) pattern to confirm presence of anhydrous form of eprosartan mesylate. More generally, X-ray diffraction (XRD) pattern can be obtained by methods known in the art, for example using Philips X'Pert PRO diffractometer with X'Celerator detector while exposing the searched material to CuKa radiation.
# [4] = bulk eprosartan, particle size <10μ
SMILES,"Angle of repose (°) [1, 4] [°]","Compressibility (%) [1, 4] [%]","Flow density [1, 4] [mL/g]","Moisture (%) [1, 4]","Tapped density [1, 4] [mL/g]","flowability [1, 4] [g/s]",hygroscopicity [2],"flowability ([1]; drug per se, sticking on punches)",physical and chemical stability [3]
CCCCc1ncc(/C=C(\Cc2cccs2)C(=O)O)n1Cc1ccc(C(=O)O)cc1 [Bulk eprosartan],>43,>30,>4.00,0.1-0.5%,>3.00,<0.10,,,
"CCCCc1ncc(/C=C(\Cc2cccs2)C(=O)O)n1Cc1ccc(C(=O)O)cc1.CS(=O)(=O)O [eprosartan mesylate, (E)-α-[2-n-butyl-1-[(4-carboxyphenyl)methyl]-1H-imidazol-5-yl]methylene-2-thiophenepropionic acid monomethanesulfonate]",,,,,,,hygroscopic,below 0.15 g/sec,physically and chemically stable
